From BindingDB's records for patent US9669095 (Enanta Pharmaceuticals, 2017) come the findings set out here.

Bounds are passed on as bounds.

Genome polyprotein, sequence (P27958 whole entry): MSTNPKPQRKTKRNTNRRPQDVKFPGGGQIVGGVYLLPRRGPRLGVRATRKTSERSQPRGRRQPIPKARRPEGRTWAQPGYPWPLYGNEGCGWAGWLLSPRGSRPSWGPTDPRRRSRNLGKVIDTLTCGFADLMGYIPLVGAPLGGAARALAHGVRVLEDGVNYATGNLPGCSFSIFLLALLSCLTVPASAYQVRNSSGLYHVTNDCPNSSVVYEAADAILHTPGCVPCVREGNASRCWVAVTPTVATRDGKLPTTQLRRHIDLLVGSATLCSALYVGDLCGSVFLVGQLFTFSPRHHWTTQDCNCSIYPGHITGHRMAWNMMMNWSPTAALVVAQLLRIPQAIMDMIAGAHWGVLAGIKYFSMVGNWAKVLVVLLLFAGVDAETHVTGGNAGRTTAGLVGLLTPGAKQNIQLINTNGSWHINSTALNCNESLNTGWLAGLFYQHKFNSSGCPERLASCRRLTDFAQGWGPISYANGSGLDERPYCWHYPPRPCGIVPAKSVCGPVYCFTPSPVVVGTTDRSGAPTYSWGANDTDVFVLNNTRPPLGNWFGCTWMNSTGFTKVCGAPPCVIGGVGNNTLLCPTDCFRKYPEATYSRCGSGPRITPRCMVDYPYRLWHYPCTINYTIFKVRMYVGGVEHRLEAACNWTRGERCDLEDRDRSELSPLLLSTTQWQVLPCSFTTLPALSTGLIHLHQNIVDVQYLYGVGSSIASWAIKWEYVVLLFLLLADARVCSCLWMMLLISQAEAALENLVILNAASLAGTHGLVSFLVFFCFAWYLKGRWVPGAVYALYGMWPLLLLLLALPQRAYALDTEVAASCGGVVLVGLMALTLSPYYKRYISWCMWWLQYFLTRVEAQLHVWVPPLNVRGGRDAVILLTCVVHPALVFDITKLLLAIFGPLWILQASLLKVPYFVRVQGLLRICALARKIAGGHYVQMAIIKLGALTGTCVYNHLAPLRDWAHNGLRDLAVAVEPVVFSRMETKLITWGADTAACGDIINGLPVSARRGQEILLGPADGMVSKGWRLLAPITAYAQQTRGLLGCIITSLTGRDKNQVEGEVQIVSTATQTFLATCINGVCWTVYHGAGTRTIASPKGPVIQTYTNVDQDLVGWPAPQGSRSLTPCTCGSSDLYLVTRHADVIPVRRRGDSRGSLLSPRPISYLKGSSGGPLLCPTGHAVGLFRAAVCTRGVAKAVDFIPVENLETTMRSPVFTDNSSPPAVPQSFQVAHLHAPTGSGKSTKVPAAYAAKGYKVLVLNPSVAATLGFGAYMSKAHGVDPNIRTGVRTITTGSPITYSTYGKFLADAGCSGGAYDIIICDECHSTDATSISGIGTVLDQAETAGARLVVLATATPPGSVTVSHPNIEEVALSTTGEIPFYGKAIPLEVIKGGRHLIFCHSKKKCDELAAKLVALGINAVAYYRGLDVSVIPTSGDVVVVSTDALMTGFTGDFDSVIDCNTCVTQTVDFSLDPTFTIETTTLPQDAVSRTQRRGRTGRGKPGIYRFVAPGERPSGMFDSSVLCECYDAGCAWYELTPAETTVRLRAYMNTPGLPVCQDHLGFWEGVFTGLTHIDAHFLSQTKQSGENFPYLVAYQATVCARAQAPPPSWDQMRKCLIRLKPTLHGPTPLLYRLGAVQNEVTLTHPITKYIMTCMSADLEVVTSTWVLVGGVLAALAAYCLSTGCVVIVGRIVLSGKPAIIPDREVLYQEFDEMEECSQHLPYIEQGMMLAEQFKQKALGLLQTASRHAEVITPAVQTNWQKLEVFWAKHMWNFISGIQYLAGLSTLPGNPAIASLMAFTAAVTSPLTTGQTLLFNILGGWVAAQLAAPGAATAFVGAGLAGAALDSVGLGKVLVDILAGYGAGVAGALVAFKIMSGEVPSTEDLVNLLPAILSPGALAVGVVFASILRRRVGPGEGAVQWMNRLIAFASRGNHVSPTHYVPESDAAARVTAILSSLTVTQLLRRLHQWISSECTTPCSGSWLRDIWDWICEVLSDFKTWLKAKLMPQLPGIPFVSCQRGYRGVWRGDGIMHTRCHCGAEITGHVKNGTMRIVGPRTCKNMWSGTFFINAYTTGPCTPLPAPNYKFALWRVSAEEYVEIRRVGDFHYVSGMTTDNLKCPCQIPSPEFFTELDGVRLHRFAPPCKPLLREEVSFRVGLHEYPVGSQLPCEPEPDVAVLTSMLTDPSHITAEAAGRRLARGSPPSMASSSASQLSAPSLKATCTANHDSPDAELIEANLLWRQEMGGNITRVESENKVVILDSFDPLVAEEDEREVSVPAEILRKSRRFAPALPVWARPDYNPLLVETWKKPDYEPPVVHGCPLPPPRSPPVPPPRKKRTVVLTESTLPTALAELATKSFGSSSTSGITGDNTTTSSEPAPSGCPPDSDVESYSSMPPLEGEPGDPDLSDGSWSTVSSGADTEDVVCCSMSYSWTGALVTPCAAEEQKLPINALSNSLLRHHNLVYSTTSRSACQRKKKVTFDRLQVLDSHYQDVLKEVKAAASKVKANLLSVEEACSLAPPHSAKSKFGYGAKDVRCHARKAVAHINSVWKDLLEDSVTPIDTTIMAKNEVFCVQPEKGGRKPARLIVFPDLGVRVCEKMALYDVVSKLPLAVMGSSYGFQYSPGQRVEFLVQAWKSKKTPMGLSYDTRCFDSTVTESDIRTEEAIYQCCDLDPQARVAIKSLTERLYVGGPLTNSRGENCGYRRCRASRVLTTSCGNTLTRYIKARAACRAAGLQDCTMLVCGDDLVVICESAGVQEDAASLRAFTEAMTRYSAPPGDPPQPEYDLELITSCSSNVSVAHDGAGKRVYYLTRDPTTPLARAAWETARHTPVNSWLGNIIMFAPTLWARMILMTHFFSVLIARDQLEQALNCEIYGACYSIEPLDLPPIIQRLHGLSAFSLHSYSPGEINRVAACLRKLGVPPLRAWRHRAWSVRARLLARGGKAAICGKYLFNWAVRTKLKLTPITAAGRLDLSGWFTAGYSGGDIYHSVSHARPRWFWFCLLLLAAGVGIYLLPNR

This assay addresses Genome polyprotein (Hepatitis C virus genotype 1a (isolate H77), UniProt P27958). The assay is described as follows: HCV Replicon Assay Luciferase. The note with it: 37 °C. Here is the method: Briefly, replicon cells are seeded at 7,000 cells per well in 90 ul DMEM (without phenol red, Invitrogen Cat. #31053-036) per well with 10% FCS, 1% non-essential amino acids, 1% of Glutamax and 1% of 100 penicillin/streptomycin and incubated overnight at 37° C., 5% CO2, 100% relative humidity. 16-20 h after seeding cells, test compounds previously solubilized and titrated in dimethyl sulfoxide ( DMSO") from each X plate and Y plate are diluted 1:100 in DMEM (without phenol red, Invitrogen Cat. #31053-036) with 10% FCS, 1% non-essential amino acids, 1% of Glutamax and 1% of 100 penicillin/streptomycin and added directly to the 96-well plate containing cells and growth medium at a 1:10 dilution for a final dilution of compound and DMSO of 1:1000 ([…]). Drug treated cells are incubated at 37° C., 5% CO2, 100% relative humidity for 72 hours before performing a luciferase assay using 100 ul per well BriteLite Plus (Perkin Elmer) according to the manufacturer's instructions. Data analysis utilizes the method published by Prichard and Shipman (Antiviral Research, 1990. 14:181-205). Using this method, the combination data are analyzed for antagonistic, additive, or synergistic combination effects across the entire combination surface created by the diluted compounds in combination.
Background: A replicon is a self-replicating genome or part of one, used to study replication in cells.
Take `CC[C@@H]1NC(=O)[C@H](C(=O)[C@H](C)CCCCCSc2nnnn2C)NC(=O)[C@H](C(C)C)N(C)C(=O)[C@H](CC(C)C)N(C)C(=O)[C@H](CC(C)C)N(C)C(=O)[C@@H](C)NC(=O)[C@H](C)NC(=O)[C@H](CC(C)C)N(C)C(=O)[C@H](C(C)C)NC(=O)[C@H](C(C)(C)CN(C)C(=O)OC)N(C)C(=O)[C@@H](C)N(C)C1=O` [US9669095, 7]: the EC50 (as a rule, the concentration needed to bring the measured effect to its halfway point) was “in the range around 55 nM”. On to `CCCC[C@@H](C)C(=O)[C@@H]1NC(=O)[C@H](C(C)C)N(C)C(=O)[C@H](CC(C)C)N(C)C(=O)[C@H](CC(C)C)N(C)C(=O)[C@@H](C)NC(=O)[C@H](C)NC(=O)[C@H](CC(C)C)N(C)C(=O)[C@H](C(C)C)NC(=O)[C@H](C(C)(C)COC(=O)NC)N(C)C(=O)[C@@H](C)N(C)C(=O)[C@H](CC)NC1=O` [US9669095, 3], for which the EC50 entry is “in the range around 55 nM”. For `C/C=C/C[C@@H](C)C1ON2C(=O)[C@H](C(C)C)N(C)C(=O)[C@H](CC(C)C)N(C)C(=O)[C@@H](CC(C)C)N(C)C(=O)[C@@H](C)NC(=O)[C@H](C)NC(=O)[C@H](CC(C)C)N(C)C(=O)[C@H](C(C)C)NC(=O)[C@H](C(C)(C)CN(C)C(=O)NS(C)(=O)=O)N(C)C(=O)[C@@H](C)N(C)C(=O)[C@H](CC)NC(=O)[C@H]12` (stereo partly drawn) [US9669095, 13] the value was “in the range around 550 nM”; for `C/C=C/C[C@@H](C)C(=O)[C@@H]1NC(=O)[C@H](C(C)C)N(C)C(=O)[C@H](CC(C)C)N(C)C(=O)[C@H](CC(C)C)N(C)C(=O)[C@@H](C)NC(=O)[C@H](C)NC(=O)[C@H](CC(C)C)N(C)C(=O)[C@H](C(C)C)NC(=O)[C@H](C(C)(C)CNC)N(C)C(=O)[C@@H](C)N(C)C(=O)[C@H](CC)NC1=O` [US9669095, 1], “in the range around 55 nM”; for `CC[C@@H]1NC(=O)[C@H](C(=O)[C@H](C)CCCCCN2CCOCC2)NC(=O)[C@H](C(C)C)N(C)C(=O)[C@H](CC(C)C)N(C)C(=O)[C@H](CC(C)C)N(C)C(=O)[C@@H](C)NC(=O)[C@H](C)NC(=O)[C@H](CC(C)C)N(C)C(=O)[C@H](C(C)C)NC(=O)[C@H](C(C)(C)CN(C)C(=O)[C@@H](NC(=O)OC)C(C)C)N(C)C(=O)[C@@H](C)N(C)C1=O` [US9669095, 8], “in the range around 55 nM”. For `C/C=C/C[C@@H](C)C1ON2C(=O)[C@H](C(C)C)N(C)C(=O)[C@H](CC(C)C)N(C)C(=O)[C@@H](CC(C)C)N(C)C(=O)[C@@H](C)NC(=O)[C@H](C)NC(=O)[C@H](CC(C)C)N(C)C(=O)[C@H](C(C)C)NC(=O)[C@H](C(C)(C)COC(=O)NS(=O)(=O)c3ccccc3)N(C)C(=O)[C@@H](C)N(C)C(=O)[C@H](CC)NC(=O)[C@H]12` (stereo partly drawn) [US9669095, 12] the value was “in the range around 550 nM”; for `CCCC[C@@H](C)C(=O)[C@@H]1NC(=O)[C@H](C(C)C)N(C)C(=O)[C@H](CC(C)C)N(C)C(=O)[C@H](CC(C)C)N(C)C(=O)[C@@H](C)NC(=O)[C@H](C)NC(=O)[C@H](CC(C)C)N(C)C(=O)[C@H](C(C)C)NC(=O)[C@H](C(C)(C)COC(=O)N(C)C)N(C)C(=O)[C@@H](C)N(C)C(=O)[C@H](CC)NC1=O` [US9669095, 4], “in the range around 55 nM”.

`C/C=C/C[C@@H](C)C1ON2C(=O)[C@H](C(C)C)N(C)C(=O)[C@H](CC(C)C)N(C)C(=O)[C@@H](CC(C)C)N(C)C(=O)[C@@H](C)NC(=O)[C@H](C)NC(=O)[C@H](CC(C)C)N(C)C(=O)[C@H](C(C)C)NC(=O)[C@H](C(C)(C)CN(C)C(=O)NS(=O)(=O)c3ccccc3)N(C)C(=O)[C@@H](C)N(C)C(=O)[C@H](CC)NC(=O)[C@H]12` (stereo partly drawn) [US9669095, 14]: the EC50 result was “in the range around 550 nM”. For `C/C=C/C[C@@H](C)C(=O)[C@@H]1NC(=O)[C@H](C(C)C)N(C)C(=O)[C@H](CC(C)C)N(C)C(=O)[C@H](CC(C)C)N(C)C(=O)[C@@H](C)NC(=O)[C@H](C)NC(=O)[C@H](CC(C)C)N(C)C(=O)[C@H](C(C)C)NC(=O)[C@H](C(C)(C)COC(=O)NC)N(C)C(=O)[C@@H](C)N(C)C(=O)[C@H](CC)NC1=O` [US9669095, 5] the value was “in the range around 55 nM”; for `CC[C@@H]1NC(=O)[C@H](C(=O)[C@H](C)CCCCCSc2nnnn2C)NC(=O)[C@@H](C(C)C)N(C)C(=O)[C@H](CC(C)C)N(C)C(=O)[C@H](CC(C)C)N(C)C(=O)[C@@H](C)NC(=O)[C@H](C)NC(=O)[C@@H](CC(C)C)N(C)C(=O)[C@H](C(C)C)NC(=O)[C@H](C(C)(C)CN(C)C(=O)[C@@H](NC(=O)OC)C(C)C)N(C)C(=O)[C@@H](C)N(C)C1=O` [US9669095, 9], “in the range around 55 nM”; for `C/C=C/C[C@@H](C)C1ON2C(=O)[C@H](C(C)C)N(C)C(=O)[C@H](CC(C)C)N(C)C(=O)[C@@H](CC(C)C)N(C)C(=O)[C@@H](C)NC(=O)[C@H](C)NC(=O)[C@H](CC(C)C)N(C)C(=O)[C@H](C(C)C)NC(=O)[C@H](C(C)(C)COC(=O)NS(C)(=O)=O)N(C)C(=O)[C@@H](C)N(C)C(=O)[C@H](CC)NC(=O)[C@H]12` (stereo partly drawn) [US9669095, 11], greater than 1000 nM. For `CCCC[C@@H](C)C(=O)[C@@H]1NC(=O)[C@H](C(C)C)N(C)C(=O)[C@H](CC(C)C)N(C)C(=O)[C@H](CC(C)C)N(C)C(=O)[C@@H](C)NC(=O)[C@H](C)NC(=O)[C@H](CC(C)C)N(C)C(=O)[C@H](C(C)C)NC(=O)[C@H](C(C)(C)CO)N(C)C(=O)[C@@H](C)N(C)C(=O)[C@H](CC)NC1=O` [US9669095, 2] the value was “in the range around 55 nM”; for `CC[C@@H]1NC(=O)[C@H](C(=O)[C@H](C)CCCCCN2CCOCC2)NC(=O)[C@@H](C(C)C)N(C)C(=O)[C@H](CC(C)C)N(C)C(=O)[C@H](CC(C)C)N(C)C(=O)[C@@H](C)NC(=O)[C@H](C)NC(=O)[C@@H](CC(C)C)N(C)C(=O)[C@H](C(C)C)NC(=O)[C@H](C(C)(C)CN(C)C(=O)OC)N(C)C(=O)[C@@H](C)N(C)C1=O` [US9669095, 6], “in the range around 55 nM”.
